Measurements published in US11331280B2, “Methods for inhibiting conversion of choline to trimethylamine (TMA)” (The Procter & Gamble Company, priority 2018, dated 2022).

Legend:
[1] = tested on: Proteus mirabilis 29906 (Pm) lysate; test: Example 10: inhibition of formation of TMA from choline by compounds in Proteus mirabilis lysate; assay type: biochemical; conditions: TABLE 10, 50 μM d9-choline chloride, two hours at 37° C., read-out: TMA Inhibition (IC50, mol/L)
Procedure: This example provides an exemplary assay for identifying and characterizing compounds that inhibit the formation of TMA from choline.
Proteus mirabilis 29906 (Pm) strain was grown aerobically overnight in 500 ml of Nutrient Broth media (3 g/L beef extract, 5 g/L Peptone; Difco #234000) at 37° C. with 250 rpm shaking. The biomass was pelleted by centrifugation at 6000×g for 12 minutes at 4° C. The cell pellet was suspended in 240 mL of ice-cold 1× Phosphate Buffered Saline (Ca^2+ and Mg^2+ free). Ninety micrograms of Lysozyme (Sigma #L6876 Lot #SLBG8654V; Sigma-Aldrich Corp., St. Louis, Mo.) was added and incubated with 320 rpm shaking for 30 minutes at 4° C. Lysis was achieved via French press with a 4° C. prechilled 1″ diameter chamber at 1000 psi (high ratio; internal PSI equivalent ˜16000). The lysate was centrifuged at 6,000×g for 12 minutes at 4° C. to pellet extra debris. A protein concentration of the centrifuged lysate supernatant was determined by a BCA Protein Assay Kit (Pierce #23225; Thermo Fisher Scientific Co., Waltham, Mass.) and protein concentration adjusted to 3 mg/ml with 1× Dulbecco's phosphate buffered saline (DPBS). […]
The plates were again agitated on a plate shaker for 1 minute and incubated at 37° C. for two hours. […] The supernatant was removed and analyzed as described below. […]

[2] = tested on: human fecal polymicrobial community; test: Example 11: human fecal polymicrobial incubation with d9-choline, compound screening; assay type: cell-based; conditions: TABLE 11, fecal slurry, 50 μM d9-choline chloride, 20 hours, doses 250 μM to 0.238 nM, read-out: TMA Inhibition (IC50, mol/L)
Procedure: Human fecal polymicrobial incubation with deuterium labeled choline compound screening method, including cell viability assay. All materials were pre-reduced in an anaerobic chamber for 24 hours before using in the experiments and experimental procedures were performed under anaerobic conditions (chamber purged with 85% nitrogen, 5% hydrogen, 10% carbon dioxide).
Human fecal samples were collected from a healthy volunteer with no chronic illnesses, blood borne diseases or active infections. The volunteer had not received antibiotics within two months prior to donation and provided written informed consent. Samples were diluted to make a 20% (w/v) fecal slurry by resuspension of the feces in a media containing 3% (w/v) tryptic soy broth (BBL #211825), 1% (w/v) trehalose (Sigma #T9631), pH 7.3. The fecal slurry was homogenized and filtered by hand using a stomacher bag with an integrated 170 μm membrane. DMSO (5% (w/v)) was added to the filtered slurry and aliquots were stored in cryogenic vials at −80° C. until use. […] After 20 hours, an aliquot of the fecal polymicrobial community was analyzed for viability using PrestoBlue cell viability reagent (Thermo Fisher Scientific, USA) as described below. […] The products were determined by LC/MS/MS and IC50 values were calculated as described previously for detection and analysis of TMA and d9-TMA in EXAMPLE 9. […]

Which results are given for C[S+](C)(=O)CCO [(2-hydroxyethyl) dimethylsulfoxonium chloride]?
IC50 [1]: 7.74 nM; IC50 [2]: 97.3 nM
